Test results taken from PMC12040169 (PLOS Biology, 2025).

Test: in vitro
Details: human, hela cells, % viability

SMILES | viability at 28.5 h, 10 µM
Cc1cc(NC(=O)c2ccco2)nc2c1c(=O)oc1ccccc12 [CBK291124] | 110%
Cc1cc(NC(=O)c2ccccc2)nc2c1c(=O)oc1ccccc12 [CBK291126] | 113%
Cc1cc(NC(=O)Cc2ccccc2)nc2c1c(=O)oc1ccccc12 [CBK291127] | 102%
CCCCCn1c(=O)c(C(=O)NCc2ccc(Cl)cc2)c(O)c2ccccc21 [CBK291131] | 117%
Cc1cc(NC(=O)C(C)(C)Oc2ccc(Cl)cc2)nc2c1c(=O)oc1ccccc12 [CBK291132] | 112%
CCCCC1CCC(C(=O)Nc2cc(C)c3c(=O)oc4ccccc4c3n2)CC1 (stereo not shown) [CBK291136] | 101%
CC(C)N1CNc2c(c(=O)nc(O)n2Cc2ccccc2)C1 [CBK291139] | 92.5%
O=c1[nH]c(=O)n(Cc2ccccc2)c2nc[nH]c12 [CBK291140] | 108%
Cc1ccccc1-c1csc2c(=O)[nH]c(N3CCC4(CC3)OCCO4)nc12 [CBK291141] | 96.9%
Cc1cccc(-c2csc3c(=O)[nH]c(N4CCC5(CC4)OCCO5)nc23)c1 [CBK291142] | 102%
Cc1cc(O)c(C(=O)Nc2cccc(Cl)c2)c(=O)n1Cc1ccco1 [CBK291143] | 91.2%
O=C(O)c1cccc(N2C(=O)CC(n3cnc4ccccc43)C2=O)c1 (stereo not shown) [CBK291145] | 89.8%
COc1ccc(C(=O)Nc2nc3ccc(S(N)(=O)=O)cc3s2)cc1 [CBK291147] | 96.9%
CCCCn1nc(C(=O)N2CCCCC2c2ncc(-c3cccc(F)c3)[nH]2)ccc1=O (stereo not shown) [CBK291149] | 98.6%
Cc1cc(NC(=O)C(C)Oc2ccccc2)nc2c1c(=O)oc1ccccc12 (stereo not shown) [CBK291153] | 95.8%
c1ccc(-c2nc(-c3ccncc3)[nH]c2-c2ccccc2)cc1 [CBK291155] | 85.3%
Oc1ccc(Nc2cc(-c3ccccc3)ncn2)cc1 [CBK291157] | 79.8%
COc1ccc(Oc2nccc(-c3ccccc3)c2C#N)cc1 [CBK291158] | 98.7%
O=c1c(-c2cc(O)[nH]n2)c(O)c2ccccc2n1Cc1ccccc1 [CBK291160] | 97.2%
Cc1cc(NC(=O)c2cccc(C(F)(F)F)c2)nc2c1c(=O)oc1ccccc12 [CBK291163] | 101%
O=c1c(Cl)c(O)c2ccccc2n1Cc1ccccc1 [CBK291164] | 91.2%
O=c1c(Cc2ccccc2)c(O)c2cccc3c2n1CCC3 [CBK291166] | 93.3%

SMILES | viability at 28.5 h, 10 µM
COc1ccc2ncc3c(c2c1)NCCNC3=O [CBK291168] | 88.4%
O=C(O)c1cccc2c1C(=O)N(Cc1ccccc1F)C2 [CBK291172] | 86.8%
O=C(Nc1nccs1)c1c(O)n(Cc2ccccc2)c2ccccc2c1=O [CBK291173] | 96.6%
COc1cc(Br)cc(C2NC(=O)c3cnc(SC)nc3N2)c1O (stereo not shown) [CBK291179] | 91.9%
Cc1nn(-c2ccccn2)c(N)c1C1CC(=O)N(c2ccc(C(=O)O)cc2)C1=O (stereo not shown) [CBK291180] | 95.2%
O=c1c([N+](=O)[O-])c(O)c2ccccc2n1Cc1ccccc1 [CBK291182] | 94.8%
O=C(O)c1cccc2c1C(=O)N(Cc1ccc(F)cc1)C2 [CBK291183] | 87.3%
CCOc1ccc(CCNC(=O)c2cnc(Nc3ccccc3OC)c3ccccc23)cc1OCC [CBK291185] | 94.5%
COc1ccc(Sc2cc3n(c(=O)n2)CCc2cc(OC)c(OC)cc2-3)cc1 [CBK291186] | 81.9%
O=c1c(-c2ccccc2)c(O)cc(-c2ccccc2)n1Cc1ccccc1 [CBK291188] | 115%
CCCc1nc(SC)ncc1C(=O)NCc1ccccn1 [CBK291190] | 108%
Cc1[nH]c(=O)c(C(=O)Nc2ccc(-n3ccc(C(N)=O)n3)cc2)cc1-c1ccccc1 [CBK291194] | 109%
COc1ccc(Cl)cc1C(=O)Nc1cc(C)c2c(=O)oc3ccccc3c2n1 [CBK291196] | 108%
Cc1ccc(Nc2ncc(C(=O)NCCCN3CCCCCC3)c3ccccc23)cc1Cl [CBK291197] | 105%
CCN(CC)CCNC(=O)c1c(O)c2ccccc2n(Cc2ccccc2)c1=O [CBK291199] | 113%
O=C(O)c1cccc2c1C(=O)N(Cc1c(F)cccc1Cl)C2 [CBK291201] | 111%
c1ccc(-c2nc(-c3ccncc3)sc2-c2ccccc2)cc1 [CBK291203] | 116%
Cc1cc(NC(=O)c2ccc(N3C(=O)CCC3=O)cc2)nc2c1c(=O)oc1ccccc12 [CBK291205] | 114%
O=C(Nc1cccnc1)c1c(O)n(Cc2ccccc2)c2ccccc2c1=O [CBK291206] | 110%
O=C(Nc1ncccc1O)c1c(O)c2ccccc2n(Cc2ccccc2)c1=O [CBK291211] | 103%
CCCCCn1c(=O)c(-c2nc3ccccc3c(=O)[nH]2)c(O)c2ccccc21 [CBK291215] | 110%
